From US6350764B2, “Heteroaryl aminoguanidines and alkoxyguanidines and their use as protease inhibitors” (3-Dimensional Pharmaceuticals, Inc., priority 1997, dated 2002) come the findings set out here.

pKi: −log10 of the molar value. Where a name gives a salt, the structure may show the parent alone.

Type in all cases: biochemical
One experiment has as its target T1, bovine trypsin (Bos taurus, UniProt P00760).
T1 construct: Purified bovine trypsin was diluted into assay buffer; purchased Sigma T8642
T1 sequence (P00760 24-246): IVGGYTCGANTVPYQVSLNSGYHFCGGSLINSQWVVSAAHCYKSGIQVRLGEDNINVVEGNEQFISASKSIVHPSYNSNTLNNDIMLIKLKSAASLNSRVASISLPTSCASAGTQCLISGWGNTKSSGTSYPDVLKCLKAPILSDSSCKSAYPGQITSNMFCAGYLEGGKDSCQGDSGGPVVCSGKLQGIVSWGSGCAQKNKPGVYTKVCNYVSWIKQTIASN
The experiment is described as follows: In vitro inhibition of purified enzymes: trypsin, hydrolysis of N-benzoyl-Phe-Val-Arg-p-nitroanilide. The text has this: (§1) Reagents: All buffer salts were obtained from Sigma Chemical Company (St. Louis, Mo.), and were of the highest purity available. The enzyme substrates, N-benzoyl-Phe-Val-Arg-p-nitroaniide (Sigma B7632) N-benzoyl-Ile-Glu-Gly-Arg-p-nitroanilide hydrochloride (Sigma B2291), N-p-Tosyl-Gly-Pro-Lys-p-nitroanilide (Sigma T6140), N-succinyl-Ala-Ala-Pro-Phe-p-nitroanilide (Sigma S7388) and N-CBZ-Val-Gly-Arg-p-nitroanilide (Sigma C7271) were obtained from Sigma. N-succinyl-Ala-Ala-Pro-Arg-p-nitroanilide (BACHEM L-1720) and N-succinyl-Ala-Ala-Pro-Val-p-nitroanilide (BACHEM L-1770) were obtained from BACHEM (King of Prussia, Pa.).
(§2) Human α-thrombin, human factor Xa and human plasmin were obtained from Enzyme Research Laboratories (South Bend, Id.). Bovine α-chymotrypsin (Sigma C4129), bovine trypsin (Sigma T8642) and human kidney cell urokinase (Sigma U5004) were obtained from Sigma. Human leukocyte elastase was obtained from Elastin Products (Pacific, Mo.).
(§3) Ki Determinations: All assays are based on the ability of the test compound to inhibit the enzyme catalyzed hydrolysis of a peptide p-nitroanilide substrate. In atypical Ki determination, substrate is prepared in DMSO, and diluted into an assay buffer consisting of 50 mM HEPES, 200 mM NaCl, pH 7.5. The final concentrations for each of the substrates is listed below. In general, substrate concentrations are lower than the experimentally determined value for Km. Test compounds are prepared as a 1.0 mg/ml solution in DMSO. Dilutions are prepared in DMSO yielding 8 final concentrations encompassing a 200 fold concentration range. Enzyme solutions are prepared at the concentrations listed below in assay buffer.
(§4) In a typical Ki determination, into each well of a 96 well plate is pipetted 280 mL of substrate solution, 10 mL of test compound solution, and the plate allowed to thermally equilibrate at 37° C. in a Molecular Devices plate reader for>15 minutes. Reactions were initiated by the addition of a […] aliquot of enzyme and the absorbance increase at 405 nm is recorded for 15 minutes. Data corresponding to less than 10% of the total substrate hydrolysis were used in the calculations. The ratio of the velocity (rate of change in absorbance as a function of time) for a sample containing no test compound is divided by the velocity of a sample containing test compound, and is plotted as a function of test compound concentration. The data are fit to a linear regression, and the value of the slope of the line calculated. The inverse of the slope is the experimentally determined Ki value.
Trypsin: Trypsin activity was assessed as the ability to hydrolyze N-benzoyl-Phe-Val-Arg-p-nitroanilide. […] Final DMSO concentration was 4.3%. Purified bovine trypsin was diluted into assay buffer to a concentration of 120 nM. Final reagent concentrations were: [Trypsin]=4 nM, [N-benzoyl-Phe-Val-Arg-p-nitroanilide]=13 mM.

The next experiment deals with T2, bovine α-chymotrypsin (Bos taurus, UniProt P00766).
T2 construct: Bovine α-chymotrypsin (Sigma C4129); purchased Sigma C4129
The experiment is described as follows: In vitro inhibition of purified enzymes: chymotrypsin, hydrolysis of N-succinyl-Ala-Ala-Pro-Phe-p-nitroanilide. The settings on record: read-out: % Inhibition Chymo.
From the text: as §1, §2, §3, §4
Chymotrypsin: Chymotrypsin activity was assessed as the ability to hydrolyze N-succinyl-Ala-Ala-Pro-Phe-p-nitroanilide. […] Final DMSO concentration was 4.3%. Purified bovine chymotrypsin was diluted into assay buffer to a concentration of 81 nM. Final reagent concentrations were: [Chymotrypsin]=2.7 nM, [N-succinyl-Ala-Ala-Pro-Phe-p-nitroanilide]=14 mM.

Another experiment deals with T3, human α-thrombin (Homo sapiens, UniProt P00734).
T3 construct: Purified human a-thrombin was diluted into assay buffer; purchased Enzyme Research Laboratories (South Bend)
The experiment is described as follows: In vitro inhibition of purified enzymes: thrombin, hydrolysis of N-succinyl-Ala-Ala-Pro-Arg-p-nitroanilide. The conditions noted are these: 37° C., pH 7.5.
From the text: Reagents: All buffer salts were obtained from Sigma Chemical Company (St. Louis, Mo.), and were of the highest purity available. The enzyme substrates, N-benzoyl-Phe-Val-Arg-p-nitroaniide (Sigma B7632) N-benzoyl-Ile-Glu-Gly-Arg-p-nitroanilide hydrochloride (Sigma B2291), N-p-Tosyl-Gly-Pro-Lys-p-nitroanilide (Sigma T6140), N-succinyl-Ala-Ala-Pro-Phe-p-nitroanilide (Sigma S7388) and N-CBZ-Val-Gly-Arg-p-nitroanilide (Sigma C7271) were obtained from Sigma.
as §2
Ki Determinations: All assays are based on the ability of the test compound to inhibit the enzyme catalyzed hydrolysis of a peptide p-nitroanilide substrate. […] The final concentrations for each of the substrates is listed below. In general, substrate concentrations are lower than the experimentally determined value for Km. Test compounds are prepared as a 1.0 mg/ml solution in DMSO. Dilutions are prepared in DMSO yielding 8 final concentrations encompassing a 200 fold concentration range. Enzyme solutions are prepared at the concentrations listed below in assay buffer.
as §4, with “Reactions” for “In a typical Ki determination, into each well of a 96 well plate is pipetted 280 mL of substrate solution, 10 mL of test compound solution, and the plate allowed to thermally equilibrate at 37° C. in a Molecular Devices plate reader for>15 minutes. Reactions”
Thrombin: Thrombin activity was assessed as the ability to hydrolyze the substrate N-succinyl-Ala-Ala-Pro-Arg-p-nitroanilide. […] Final reagent concentrations were: [thrombin]=0.5 nM, [substrate N-succinyl-Ala-Ala-Pro-Arg-p-nitroanilide]=32 mM.

The target in the next experiment is T4, human factor Xa (Homo sapiens, UniProt P00742).
T4 construct: purchased Enzyme Research Laboratories (South Bend)
The experiment is described as follows: In vitro inhibition of purified enzymes: Factor X [FXa], hydrolysis of N-benzoyl-Ile-Glu-Gly-Arg-p-nitroanilide. The settings on record: 37° C., pH 7.5.
From the text: as §1, §2, §3, §4
Factor X [FXa]: FXa activity was assessed as the ability to hydrolyze the substrate N-benzoyl-Ile-Glu-Gly-Arg-p-nitroanilide hydrochloride. […] Final DMSO concentration was 4.3%. Purified activated human Factor X was diluted into assay buffer to a concentration of 300 nM. Final reagent concentrations were: [FXa]=10 nM, [N-benzoyl-Ile-Glu-Gly-Arg-p-nitroanilide hydrochloride]=51 mM.

The target of another experiment is T5, human leukocyte elastase (Homo sapiens, UniProt P08246).
T5 construct: purchased Elastin Products (Pacific, Mo.)
T5 sequence (P08246 30-247 limits assumed): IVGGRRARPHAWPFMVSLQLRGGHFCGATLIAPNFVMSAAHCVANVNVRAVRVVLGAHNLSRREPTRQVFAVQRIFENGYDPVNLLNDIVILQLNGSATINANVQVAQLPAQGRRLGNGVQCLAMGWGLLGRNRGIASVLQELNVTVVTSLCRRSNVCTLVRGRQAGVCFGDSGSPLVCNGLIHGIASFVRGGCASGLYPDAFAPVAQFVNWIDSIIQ
The experiment is described as follows: In vitro inhibition of purified enzymes: elastase, hydrolysis of N-succinyl-Ala-Ala-Pro-Val-p-nitroanilide.
From the text: as §1, §2, §3, §4
Elastase: Elastase activity was assessed as the ability to hydrolyze N-succinyl-Ala-Ala-Pro-Val-p-nitroanilide. Substrate solutions were prepared at a concentration of 19 mM (19 mM<<Km=89 mM) in assay buffer. Final DMSO concentration was 4.3%. Purified human leukocyte elastase was diluted into assay buffer to a concentration of 750 nM. Final reagent concentrations were: [Elastase]=25 nM, [N-succinyl-Ala-Ala-Pro-Val-p-nitroanilide]=19 mM.

The target of a further experiment is T6, human plasmin (Homo sapiens, UniProt P00747).
T6 construct: Purified human plasmin was diluted into assay buffer; purchased Enzyme Research Laboratories (South Bend)
The experiment is described as follows: In vitro inhibition of purified enzymes: plasmin, hydrolysis of N-p-Tosyl-Gly-Pro-Lys-p-nitroanilide.
From the text: as §1, §2, §3, §4
Plasmin: Plasmin activity was assessed as the ability to hydrolyze the N-p-Tosyl-Gly-Pro-Lys-p-nitroanilide. Substrate solutions were prepared at a concentration of 37 mM (37 mM<<Km=243 mM) in assay buffer. Final DMSO concentration was 4.3%. Purified human plasmin was diluted into assay buffer to a concentration of 240 nM. Final reagent concentrations were: [Plasmin]=8 nM, [N-p-Tosyl-Gly-Pro-Lys-p-nitroanilide]=37 mM.

T4 sequence (P00742 235-488 limits assumed): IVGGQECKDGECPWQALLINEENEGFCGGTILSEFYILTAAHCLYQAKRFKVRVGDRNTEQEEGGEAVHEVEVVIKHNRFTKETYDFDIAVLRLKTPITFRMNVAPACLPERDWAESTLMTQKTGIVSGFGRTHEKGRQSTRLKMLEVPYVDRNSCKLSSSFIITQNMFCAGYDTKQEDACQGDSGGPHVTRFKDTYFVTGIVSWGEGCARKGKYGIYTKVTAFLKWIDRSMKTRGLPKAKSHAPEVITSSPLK
T4 sequence (P00742 41-179 partner limits assumed): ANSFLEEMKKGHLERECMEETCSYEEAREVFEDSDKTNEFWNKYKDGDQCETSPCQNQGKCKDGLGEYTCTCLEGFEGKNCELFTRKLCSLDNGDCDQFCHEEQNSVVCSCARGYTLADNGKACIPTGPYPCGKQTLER
T6 sequence (P00747 581-810 limits assumed): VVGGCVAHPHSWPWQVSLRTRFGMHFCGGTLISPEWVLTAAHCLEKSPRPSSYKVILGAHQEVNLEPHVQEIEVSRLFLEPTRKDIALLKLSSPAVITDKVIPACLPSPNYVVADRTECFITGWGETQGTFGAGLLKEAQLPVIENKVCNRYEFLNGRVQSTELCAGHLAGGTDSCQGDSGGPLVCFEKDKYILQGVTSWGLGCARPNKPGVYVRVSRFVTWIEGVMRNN
T6 sequence (P00747 97-580 partner limits assumed): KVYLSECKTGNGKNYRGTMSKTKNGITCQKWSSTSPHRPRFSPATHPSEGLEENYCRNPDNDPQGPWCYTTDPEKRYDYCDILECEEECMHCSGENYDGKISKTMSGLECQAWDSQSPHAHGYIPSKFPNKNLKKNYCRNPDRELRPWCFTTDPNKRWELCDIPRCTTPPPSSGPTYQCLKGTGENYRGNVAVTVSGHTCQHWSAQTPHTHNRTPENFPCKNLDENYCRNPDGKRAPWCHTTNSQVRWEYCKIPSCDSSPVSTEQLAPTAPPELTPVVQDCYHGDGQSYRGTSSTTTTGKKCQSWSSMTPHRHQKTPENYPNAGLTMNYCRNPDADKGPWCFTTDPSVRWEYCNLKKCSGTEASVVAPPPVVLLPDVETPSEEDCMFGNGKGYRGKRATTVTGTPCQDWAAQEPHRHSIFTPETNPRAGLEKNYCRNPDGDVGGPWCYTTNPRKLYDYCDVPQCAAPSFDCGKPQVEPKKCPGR

In the case of `Cc1ccc(NS(=O)(=O)c2ccccc2Cl)c(=O)n1CC(=O)NCCONC(=N)N` [Example 30, 3-(2-Chlorophenylsulfonyl)amino-6-methyl-1-[(2-guanidinooxyethyl)aminocarbonylmethyl]-2-pyridinone trifluoroacetate], the inhibition at 23.5 µM on bovine trypsin (at 23,500 nM), at bovine α-chymotrypsin (at 23,500 nM), on human leukocyte elastase (at 23,500 nM) and on human plasmin (at 23,500 nM) was 0% in each case. Besides, the values for the negative-log Ki (pKi) on human α-thrombin and at human factor Xa were 7.21 and 5.12, respectively.

As to `Cc1ccc(NS(=O)(=O)c2ccc(I)cc2)c(=O)n1CC(=O)NCCONC(=N)N` [Example 38, 3-(4-Iodophenylsulfonyl)amino-6-methyl-1-[(2-guanidinooxyethyl)aminocarbonylmethyl]-2-pyridinone trifluoroacetate], the inhibition at 20 µM at bovine trypsin (at 20,000 nM), on bovine α-chymotrypsin (at 20,000 nM), against human leukocyte elastase (at 20,000 nM) and against human plasmin (at 20,000 nM) was 0% in each case. Further, the negative logarithm of the Ki (pKi) on human α-thrombin was 7.29; on human factor Xa, 6.38.

In the case of `Cc1ccc(NS(=O)(=O)c2ccccc2[N+](=O)[O-])c(=O)n1CC(=O)NCCONC(=N)N` [Example 71, 3-(2-Nitrophenylsulfonyl)amino-6-methyl-1-[(2-guanidinooxyethyl)aminocarbonylmethyl]-2-pyridinone trifluoroacetate], the inhibition at 12 µM against bovine trypsin (at 12,000 nM), at bovine α-chymotrypsin (at 12,000 nM), against human leukocyte elastase (at 12,000 nM) and on human plasmin (at 12,000 nM) was 0% each time. The values for the pKi on human α-thrombin and at human factor Xa were 6.24 and 5.06, respectively.

For the molecule `Cc1ccc(NS(=O)(=O)c2ccc3cc(Cl)ccc3c2)c(=O)n1CC(=O)NCCONC(=N)N` [Example 85, 3-(6-Chloronaphthalene-2-sulfonyl)amino-6-methyl-1-[(2-guanidinooxyethyl)aminocarbonylmethyl]-2-pyridinone trifluoroacetate], the negative-log Ki (pKi) on bovine trypsin (37° C., pH 7.5) is 5.80; at human α-thrombin, 6.54; on human factor Xa, 5.89. In addition, the inhibition at 18 µM on bovine α-chymotrypsin (at 18,000 nM), on human leukocyte elastase (at 18,000 nM) and on human plasmin (at 18,000 nM) was 0% in each case.
